The values below come from ChEMBL document CHEMBL3507680, “University of Dundee, Gates Library screen for HepG2 cell viability”.

The nature of the data set: Human HepG2 cell viability assay in 384 well format. Further details: dose 125 nL, time 70.5 hour; concentration not given beside the values. The format is toxicity, cell-based. To be noted: HepG2 cells, read-out: Inhibition.
On to `Cc1ccc(NC(=O)C2=CN=S=N2)cc1`, for which the cytotoxicity at 70.5 h was found to be 18.8%.

As for `Cc1cnn(C2CN(C(C)c3nc(-c4ccccc4)no3)C2)c1` (stereo not given), the cytotoxicity at 70.5 h is -8.84%. The result for `Cc1nc(N2CCN(C(=O)NCc3cscn3)CC2)sc1C` reads -2.92%; that for `COc1ccccc1NC(=O)CSC1CCc2ccccc2NC1=O` (stereo not given), -10.1%.

For the compound `Cc1nn(C)c(C)c1NC(=O)CNC(c1ccccc1)C1CCC1` (stereo not given), the cytotoxicity at 70.5 h was -4.47%. As for `O=C(Cc1noc2ccccc12)N1CCCC1c1noc(C2CC2)n1` (stereo not given), the cytotoxicity at 70.5 h came to 32.1%. Turning to `COC(=O)C1CCCN1C(=O)c1ccc(Br)cc1F` (stereo not given), the cytotoxicity at 70.5 h came to 12.6%. For `COc1ccc(-n2ccc(C(=O)N(C)C(C)C3(C)CC3)n2)cc1` (stereo not given), the cytotoxicity at 70.5 h was found to be 21.1%. The result for `CN(C)CCC1CCCCN1Cc1cnn(C)c1C1CC1` (stereo not given) reads 2.52%; that for `CCOC(C)c1nc(CN2CCC(CNC(C)=O)CC2)cs1` (stereo not given), -2.36%; that for `Cn1cc(CC2CCN(C(=O)NCc3cccc(C#N)c3)C2)cn1` (stereo not given), -5%. In the case of `CC(C)N1CCCc2sc(C(=O)NC3CC3)nc21` it was 8.47%; in that of `Clc1cccc(N2CCC(NCc3cc[nH]n3)C2)c1` (stereo not given), 3.22%. Consider `CC(C)NC(=O)c1ccc2c(c1)C1(CCN(C)CC1)C(=O)N2`, for which the cytotoxicity at 70.5 h worked out at 2.1%. In the case of `CCc1nc(C2CCCN2c2ncc(C(F)(F)F)cc2Cl)no1` (stereo not given) it was 1.13%. In the case of `Cn1ccnc1CN1CCC2(CC1)Cc1ccccc1CNC2=O` it was -3.2%; in that of `COC(=O)[C@H]1CN(C(=O)NC(C)C)CCN1C(=O)CSC`, -5.64%; in that of `CC(C)C(C(=O)NCC1CC1)n1cnc2cc(F)c(F)cc21` (stereo not given), -1.42%. Regarding `COc1cccc(-c2noc(C3CCN(Cc4ccc(C)cc4)C3)n2)c1` (stereo not given), the cytotoxicity at 70.5 h came out at 23.2%. The result for `CC(C)c1cc(O)nc(C2CCCN2C(=O)C2CC2)n1` (stereo not given) reads -1.44%; that for `CN(C(=O)C1CCC1)C1CCN(c2ccccc2Cl)C1=O` (stereo not given), -26.5%; that for `Cc1ccnn1CC(=O)N1CCCN(C2Cc3ccccc3C2)CC1`, -14.5%. The result for `COC(C)(C)C(=O)NCC1CCN(Cc2cc3ccccc3[nH]2)C1` (stereo not given) reads -17.4%. In the case of `CCN1CC(CN(C)Cc2nc(-c3cccc(Cl)c3)oc2C)CC1=O` (stereo not given) it was -6.94%; in that of `CCN1CCN(C(C)CNC(=O)Nc2nnc(C)s2)CC1` (stereo not given), -10.5%; in that of `COC(=O)NCC(=O)NC1(C)CCc2ccccc2C1` (stereo not given), -8.98%. Regarding `Cc1noc(C)c1CN1CCCC1c1nnc2ccccn12` (stereo not given), the cytotoxicity at 70.5 h is -23.7%. The result for `COc1ccc(CN2CCN(CC3CC3)[C@@H]3CS(=O)(=O)C[C@@H]32)cc1O` reads -2.14%; that for `CC(C)NC(=O)C1CN(C(N)=O)Cc2ccnn2C1` (stereo not given), -17.9%; that for `O=C(C1CCCC1)N1CCC2(CC1)OCCO2`, -1.7%. The result for `Cc1cc(C(=O)NC(C)c2nnn[nH]2)c2ccc(C)c(C)c2n1` (stereo not given) reads 34.8%. In the case of `CC(NC(=O)N1CCN(c2ccc(Cl)cc2)CC1)C(=O)N1CCSCC1` (stereo not given) it was -12.6%; in that of `Cc1cnc(-c2nc(-c3cccc(CN4CCOCC4)c3)no2)cn1`, -4.86%. Consider `O=C(c1ccc2nccn2c1)N1CCCC1c1noc(C2CC2)n1` (stereo not given), for which the cytotoxicity at 70.5 h was -5.7%. Consider `CN(Cc1ccncc1)C1CC2(CCN(c3ncccn3)CC2)C1`, for which the cytotoxicity at 70.5 h is -3.37%. Regarding `COCCN1C(=O)CC(c2cccnc2)C12CCN(C(=O)C1CC1)CC2` (stereo not given), the cytotoxicity at 70.5 h is -0.348%.

Regarding `CO[C@@H]1CCN(C(=O)Cc2ccc(F)cc2)[C@@H]1Cc1cccnc1`, the cytotoxicity at 70.5 h was -3.63%. The result for `c1coc(CN2CCOC3(COCCN(Cc4ccncc4)C3)C2)c1` (stereo not given) reads -3.4%.

`Cc1ccc(S(=O)(=O)Nc2cnn(C3CCOCC3)c2)cc1C`: the cytotoxicity at 70.5 h amounted to 2.28%. With `CC(C)n1ncc2c1NC(=O)CC21C(=O)Nc2cc(Cl)cc(Cl)c21` (stereo not given), the cytotoxicity at 70.5 h was -17.8%.

Regarding `Cc1csc(CCNCc2cnc3c(c2)c(C)nn3C)n1`, the cytotoxicity at 70.5 h came to 5.91%. In the case of `CC(C)C1CN(C(=O)c2ccc(N3CCCC3)nc2)CCS1` (stereo not given) it was -8.6%; in that of `CCn1c(Cn2cncn2)nnc1C1CCN(C2CCOCC2)CC1`, 34.9%. The result for `CC(NC(=O)Nc1nncs1)C(=O)NC1CCCC1` (stereo not given) reads -8.75%; that for `Cc1cc(C)c(CCNC(=O)CN2CCCN(C(N)=O)CC2)c(C)c1`, 15.4%.

With `CCc1ccccc1NC(=O)C1CN(C(C)=O)C1`, the cytotoxicity at 70.5 h is 11.2%. The result for `COc1ccc(NC(C)C(=O)NCCc2cccs2)cc1F` (stereo not given) reads 9.05%. In the case of `O=C(NCc1cccnc1N1CCCCC1)c1cccs1` it was -3.28%; in that of `c1cnn(CC2CN(Cc3nc(C4CC4)no3)CCO2)c1` (stereo not given), 19.7%. On to `COCCNc1nc(-c2ccc(S(=O)(=O)N3CCCCCC3)cc2)cs1`, for which the cytotoxicity at 70.5 h was -5.83%. For `C/N=C1/c2cc3cc(OC)ccc3n2CCN1C`, the cytotoxicity at 70.5 h is -0.795%.

As to `COc1c(CNCc2ccccc2Cn2cncn2)c(C)nn1C`, the cytotoxicity at 70.5 h is -1.28%. In the case of `Cc1cnn(CCNCCCOc2ccccc2)c1` it was -7.1%.

As for `COc1ccccc1[C@@H]1CN(C(=O)c2csc(C)n2)C[C@H]1C(=O)O`, the cytotoxicity at 70.5 h is -2.79%. In the case of `CS(=O)(=O)Cc1ccc(NC(=O)c2cccnc2)cc1F` it was -6.22%; in that of `O=C1N(Cc2ccccn2)C[C@H]2CN(C3CCOCC3)CCN12`, -3.19%. In the case of `Cc1cc(C)n(C2CCCN(C(=O)c3cccc4[nH]ncc34)C2)n1` (stereo not given) it was -4.99%; in that of `CC(C(N)=O)S(=O)(=O)Cc1cc(Cl)c2c(c1)OCO2` (stereo not given), -12.5%.

`COCCCC1CCN([C@@H]2c3ccccc3C3(CCNCC3)[C@H]2O)CC1`: the cytotoxicity at 70.5 h is -1.24%. On to `COC[C@@]12CC[C@@H](N3CCOCC3)C[C@H]1CCN(c1ncccc1Cl)C2`, for which the cytotoxicity at 70.5 h is -4.77%. As to `COC(=O)c1ccc(N2CCN(C(=O)c3cnn(C)c3)C(C)C2)cc1` (stereo not given), the cytotoxicity at 70.5 h stood at 16.7%.

As for `O=C(Cn1ccc2sccc2c1=O)NCCCc1ccccc1`, the cytotoxicity at 70.5 h was -9.43%.

On to `O=C(Nc1cnccn1)[C@@H]1COC[C@H]2CN(C3CCCC3)C[C@H]21`, for which the cytotoxicity at 70.5 h was -3.18%. For `O=C(NCc1ccccc1CN1CCCC1=O)Nc1nncs1`, the cytotoxicity at 70.5 h is -7.24%. The result for `CCC(Nc1ccc(Oc2ccc(C#N)cc2OC)cc1)C(N)=O` (stereo not given) reads 5.26%; that for `Cc1nc2n(n1)CC(NCC(=O)N(C)Cc1cccs1)CC2` (stereo not given), 2.31%; that for `c1nc2c(c(C3CC3)n1)CCN(Cc1ccc3c(c1)OCO3)CC2`, -4.69%. In the case of `COc1ccc(/C=C/CN2CCC3(CC2)CN(C)C(=O)O3)cc1` it was -6.12%. In the case of `Cc1ccc(OCC(=O)NCc2sccc2C)nc1` it was -3.68%; in that of `Cc1occc1C(=O)N1CCCn2cnc(CN3CCCC3=O)c2C1`, -0.779%; in that of `CCC[C@H]1CN(C(=O)c2ccc3[nH]c(CO)nc3c2)C[C@@H]1N`, -27.1%. On to `Cc1cc(C[S+]([O-])CC(=O)Nc2c(C)cccc2C)no1` (stereo not given), for which the cytotoxicity at 70.5 h was -8.27%.

As for `Cc1ccc(CNCc2nnc3n2CC(C(F)(F)F)CC3)cc1` (stereo not given), the cytotoxicity at 70.5 h was 1.57%. The result for `COCCC(=O)N1Cc2ccccc2OC2(CCOCC2)C1` reads -0.482%. Take `COC1(CNC(=O)NCCOc2ccccc2)CCSC1` (stereo not given): the cytotoxicity at 70.5 h is 1.02%. The result for `O=C(CSc1nnc(N2CCCC2)s1)NC(=O)Nc1ccccc1` reads -5.54%. Regarding `O=C1CCC2(CCCN(Cc3nnc(C4CC4)o3)C2)CN1CCO` (stereo not given), the cytotoxicity at 70.5 h worked out at 3.23%.

Consider `O=C(O)CN1CCC(F)(F)C2(CCN(c3ccccn3)C2)C1` (stereo not given), for which the cytotoxicity at 70.5 h came out at 2.21%.

With `CCN1CCN(C(C)(C)CNc2nc(C)cc(C3CCC3)n2)CC1`, the cytotoxicity at 70.5 h is -5.33%.

On to `Cc1cc(F)c(S(=O)(=O)N(C)CCn2cccn2)cc1F`, for which the cytotoxicity at 70.5 h was -9.11%. Regarding `COc1cncc(N2CCN(Cc3ccco3)CC2)n1`, the cytotoxicity at 70.5 h was -12.1%. For the compound `CN1CC(C(=O)NCc2ccnc(-n3cccn3)c2)CC1=O` (stereo not given), the cytotoxicity at 70.5 h is -22.4%. The result for `Cc1ncsc1CNC(=O)CCN1CCN(c2ccccn2)CC1` reads -8.25%; that for `O=C(Cn1cc(-c2ccccc2)ncc1=O)Nc1ccncc1`, -13.4%.

With `Cc1cccc(N(CCC(N)=O)C(=O)c2cnccn2)c1`, the cytotoxicity at 70.5 h is -12.9%. In the case of `Cc1ncc(C)c(N2Cc3cnn(Cc4ccc(F)cc4)c3C2)n1` it was 13%. In the case of `CCCOc1ccc(C(=O)N2C[C@@H](CN3CCCC3)[C@@H](CO)C2)cc1Cl` it was 1.78%; in that of `Cn1ccnc1-c1noc(NCc2ccc(Br)cc2)n1`, -7.73%; in that of `FC(F)(F)c1ccc(-c2c[nH]c([C@@H]3COCCN3)n2)cc1`, -16%.

For `Cc1cccc(Cn2cc(C)c(N)n2)c1`, the cytotoxicity at 70.5 h was -1.64%. Take `O=C(CN1CC(c2nc(C3CC3)no2)C1)NCC1CCCO1` (stereo not given): the cytotoxicity at 70.5 h is 3.91%. In the case of `CC(C)(C)OC(=O)N1CCN(c2ccc(F)cc2)CC1C(=O)O` (stereo not given) it was -1.03%. In the case of `CCN1CC[C@@]2(C(=O)N3CCCC3)CCN(S(C)(=O)=O)CC[C@@H]12` it was -8.95%. In the case of `CN1CCCc2sc(C(=O)NCc3cccnc3)nc21` it was -10.4%. `CC(=O)N1CCc2c(nc(-c3cccnc3)nc2N(C)CC(O)CO)C1` (stereo not given): the cytotoxicity at 70.5 h is -6.57%. In the case of `CC(C(=O)NCc1ccc(N2CCCCCC2)nc1)S(C)(=O)=O` (stereo not given) it was -9.13%; in that of `O=C1NCC2(CCCN(C(=O)c3ccc4c(c3)OCCO4)CC2)O1` (stereo not given), -2.63%. The result for `Cc1nc(C2CCN(C)CC2)cc(N2CCOc3ccc(Cl)cc3C2)n1` reads 32.5%; that for `N#Cc1cccc(CN2CCN(Cc3cscn3)CC2)c1`, -10%; that for `COc1cccc(/C=C/CCN2CCN(S(C)(=O)=O)CC2)c1`, -3.47%.
